Source: patent US8378104B2 (OSI Pharmaceuticals, LLC, priority 2010, dated 2013)
Counter-ions that a name gives are not always drawn.

Columns and labels:
pJNK in HCT-116 cells = assay: Phospho-JNK (Thr183/Tyr185) Meso Scale ELISA assay, TNFα-stimulated HCT-116 cells; type: cell-based; details: Homo sapiens, read-out: mean HCT-116 pJNK ELISA IC50 (Col. B)
How it was run: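 HCT-116 cells in 1% FCS medium were pretreated with compound for 4 hrs at 37° C, then stimulated with TNFα at 10 ng/mL final for 10 minutes. Lysates were taken in ice-cold lysis buffer with phosphatase and protease inhibitors, and phospho-JNK (Thr183/Tyr185) was measured by Meso Scale ELISA.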

p-p38 in HCT-116 cells = assay: Phospho-p38 Meso Scale ELISA assay, TNFα-stimulated HCT-116 cells; type: cell-based; details: Homo sapiens, read-out: mean HCT-116 p-p38 ELISA IC50 (Col. C)
How it was run: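 HCT-116 cells in 1% FCS medium for 2 h, then compound for 4 h at 37° C, then TNFα at 10 ng/mL final for 10 min. Lysates captured overnight at 4° C and phospho-p38 quantified by Meso Scale electrochemiluminescence ELISA.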

TAK1-TAB1 fusion protein = biological target: T1, TAK1-TAB1 fusion protein (Homo sapiens, UniProt O43318); assay: TAK1 biochemical assay (AlphaScreen, GST-MAP2K7 substrate); details: TAK1-TAB1 fusion protein, GST-MAP2K7 substrate; read-out: mean TAK1 IC50 (Col. A)
T1 construct: purchased Carna
T1 sequence (O43318 with tags, fused parts or gaps limits assumed): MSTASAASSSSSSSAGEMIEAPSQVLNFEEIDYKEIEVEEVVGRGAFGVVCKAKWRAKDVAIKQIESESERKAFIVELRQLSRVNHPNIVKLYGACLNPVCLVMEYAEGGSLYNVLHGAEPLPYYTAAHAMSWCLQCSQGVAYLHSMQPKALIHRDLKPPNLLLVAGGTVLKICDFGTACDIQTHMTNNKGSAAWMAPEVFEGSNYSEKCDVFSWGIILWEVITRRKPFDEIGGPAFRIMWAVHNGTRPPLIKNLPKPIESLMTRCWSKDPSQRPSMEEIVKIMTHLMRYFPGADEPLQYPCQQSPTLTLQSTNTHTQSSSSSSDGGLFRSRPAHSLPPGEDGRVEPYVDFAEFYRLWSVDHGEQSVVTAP

| IC50 (pJNK in HCT-116 cells) [nM] | IC50 (p-p38 in HCT-116 cells) [nM] | IC50 (TAK1-TAB1 fusion protein) [nM] | Compound |
| --- | --- | --- | --- |
| 1000 to 10000 | 1000 to 10000 | > 10000 | CC(=O)N1CCC(n2cc(-c3cnc(N)c4oc(-c5cccc6c5oc5ccccc56)cc34)cn2)CC1 [Example 93, 1-(4-{4-[7-amino-2-(dibenzo[b,d]furan-4-yl)furo[2,3-c]pyridin-4-yl]-1H-pyrazol-1-yl}piperidin-1-yl)ethanone] |
| 100 to 1000 | < 100 | < 100 | CC(C)n1cc(-c2cnc(N)c3oc(-c4c[nH]c5cnccc45)cc23)cn1 [Example 90, 4-[1-(propan-2-yl)-1H-pyrazol-4-yl]-2-(1H-pyrrolo[2,3-c]pyridin-3-yl)furo[2,3-c]pyridin-7-amine] |
| 100 to 1000 | 100 to 1000 | 100 to 1000 | CC(=O)N1CCC(n2cc(-c3cnc(N)c4oc(-c5ccc6scnc6c5)cc34)cn2)CC1 [Example 107, 1-(4-{4-[7-amino-2-(1,3-benzothiazol-5-yl)furo[2,3-c]pyridin-4-yl]-1H-pyrazol-1-yl}piperidin-1-yl)ethanone] |
| 1000 to 10000 | 1000 to 10000 | > 10000 | Cc1nn(CC(O)CO)c(C)c1-c1cnc(N)c2oc(-c3cccc4cnccc34)cc12 (stereo not drawn) [Example 400, 3-{4-[7-amino-2-(isoquinolin-5-yl)furo[2,3-c]pyridin-4-yl]-3,5-dimethyl-1H-pyrazol-1-yl}propane-1,2-diol] |
| 100 to 1000 | 100 to 1000 | 100 to 1000 | CC(=O)N1CCC(n2cc(-c3cnc(N)c4oc(-c5ccccc5CC#N)cc34)cn2)CC1 [Example 215, (2-{4-[1-(1-acetylpiperidin-4-yl)-1H-pyrazol-4-yl]-7-aminofuro[2,3-c]pyridin-2-yl}phenyl)acetonitrile] |
| > 10000 | > 10000 | < 100 | Nc1ncc(-c2cnn(C3CCNCC3)c2)c2cc(-c3ccc4[nH][nH]c(=O)c4c3)oc12 [Example 55, 5-{7-amino-4-[1-(piperidin-4-yl)-1H-pyrazol-4-yl]furo[2,3-c]pyridin-2-yl}-1,2-dihydro-3H-indazol-3-one trifluoroacetic acid salt] |
| 1000 to 10000 | 1000 to 10000 | < 100 | CC(=O)N1CCC(n2cc(-c3cnc(N)c4oc(-c5c[nH]c6cnccc56)cc34)cn2)CC1 [Example 86, 1-(4-{4-[7-amino-2-(1H-pyrrolo[2,3-c]pyridin-3-yl)furo[2,3-c]pyridin-4-yl]-1H-pyrazol-1-yl}piperidin-1-yl)ethanone] |
| 100 to 1000 | 100 to 1000 | 1000 to 10000 | CC(=O)N1CCC(n2cc(-c3cnc(N)c4oc(-c5ccc6[nH]ccc6c5)cc34)cn2)CC1 [Example 92, 1-(4-{4-[7-amino-2-(1H-indol-5-yl)furo[2,3-c]pyridin-4-yl]-1H-pyrazol-1-yl}piperidin-1-yl)ethanone] |
| 100 to 1000 | 100 to 1000 | < 100 | CC(=O)N1CC(n2cc(-c3cnc(N)c4oc(-c5csc6cnccc56)cc34)cn2)C1 [Example 316, 1-{3-[4-(7-amino-2-thieno[2,3-c]pyridin-3-yl-furo[2,3-c]pyridin-4-yl)-pyrazol-1-yl]-azetidin-1-yl}-ethanone] |
| 1000 to 10000 | 1000 to 10000 | 100 to 1000 | CC(=O)N1CCC(n2cc(-c3cnc(N)c4oc(-c5cccc6ccccc56)cc34)cn2)CC1 [Example 105, 1-(4-{4-[7-amino-2-(naphthalen-1-yl)furo[2,3-c]pyridin-4-yl]-1H-pyrazol-1-yl}piperidin-1-yl)ethanone] |
| 100 to 1000 | 1000 to 10000 | 1000 to 10000 | CC(=O)N1CCC(n2cc(-c3cnc(N)c4oc(-c5cc(C)c(O)c(C)c5)cc34)cn2)CC1 [Example 138, 1-(4-{4-[7-amino-2-(4-hydroxy-3,5-dimethylphenyl)furo[2,3-c]pyridin-4-yl]-1H-pyrazol-1-yl}piperidin-1-yl)ethanone] |
| 100 to 1000 | 100 to 1000 | 100 to 1000 | CC(C)(C)OC(=O)N1CCC(n2cc(-c3cnc(N)c4oc(-c5csc6cnccc56)cc34)cn2)CC1 [Example 300, 4-[4-(7-amino-2-thieno[2,3-c]pyridin-3-yl-furo[2,3-c]pyridin-4-yl)-pyrazol-1-yl]piperidine-1-carboxylic acid tert-butyl ester] |
| 100 to 1000 | 100 to 1000 | 1000 to 10000 | Nc1ncc(-c2cn[nH]c2)c2cc(-c3cccc4cnccc34)oc12 [Example 69, 2-(isoquinolin-5-yl)-4-(1H-pyrazol-4-yl)furo[2,3-c]pyridin-7-amine] |
| 100 to 1000 | 1000 to 10000 | 100 to 1000 | CC1(C)OC[C@@H](Cn2cc(-c3cnc(N)c4oc(-c5csc6cnccc56)cc34)cn2)O1 [Example 297, 4-[1-((R)-2,2-dimethyl-[1,3]dioxolan-4-ylmethyl)-1H-pyrazol-4-yl]-2-thieno[2,3-c]pyridin-3-yl-furo[2,3-c]pyridin-7-ylamine] |
| 100 to 1000 | 1000 to 10000 | 100 to 1000 | CC(=O)N1CCC(n2cc(-c3cnc(N)c4oc(C5=CCCCC5)cc34)cn2)CC1 [Example 142, 1-(4-{4-[7-amino-2-(cyclohex-1-en-1-yl)furo[2,3-c]pyridin-4-yl]-1H-pyrazol-1-yl}piperidin-1-yl)ethanone] |
| 100 to 1000 | 100 to 1000 | 100 to 1000 | CC(C)n1cc(-c2cnc(N)c3oc(-c4cccc5cnccc45)cc23)cn1 [Example 60, 2-(isoquinolin-5-yl)-4-[1-(propan-2-yl)-1H-pyrazol-4-yl]furo[2,3-c]pyridin-7-amine] |
| < 100 | < 100 | < 100 | CC(=O)N1CCC(n2cc(-c3cnc(N)c4oc(-c5cccc6cnsc56)cc34)cn2)CC1 [Example 226, 1-(4-{4-[7-amino-2-(1,2-benzothiazol-7-yl)furo[2,3-c]pyridin-4-yl]-1H-pyrazol-1-yl}piperidin-1-yl)ethanone] |
| 100 to 1000 | 100 to 1000 | 100 to 1000 | CC(=O)N1CCC(n2cc(-c3cnc(N)c4oc(-c5ccc6sccc6c5)cc34)cn2)CC1 [Example 106, 1-(4-{4-[7-amino-2-(1-benzothiophen-5-yl)furo[2,3-c]pyridin-4-yl]-1H-pyrazol-1-yl}piperidin-1-yl)ethanone] |
